Laboratory results: US7855290B2, “Pyridine derivatives and pyrimidine derivatives (3)” (Eisai R&D Management Co., Ltd., priority 2005, dated 2010)

Tests used:
[1] = test system: Human gastric cancer cells (MKN-45); test: Inhibitory activity against the proliferation of human gastric cancer cells (MKN-45); assay type: cell-based; details: 72 h, MKN-45, 1% FBS RPMI1640, 3 days, Cell Counting Kit-8
Method in brief: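 MKN-45 cells seeded overnight in RPMI1640 with 1% FBS, then exposed to compound for 3 days at 37° C, 5% CO2. Viability read with CCK-8 after about 1.5 hrs, absorbance at 450 nm (reference 660 nm).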

[2] = target: T1, HGFR (Homo sapiens, UniProt P08581); test: Inhibitory activity against the HGFR autophosphorylation using ELISA (MKN-45 cells); assay type: cell-based; details: 1 hr with test substance
T1 construct: endogenous in cells; host or cells: MKN-45 human gastric cancer cells
Procedure: Human gastric cancer cells (MKN-45) were suspended in a 1% FBS-containing RPMI1640 medium (purchased from Sigma). The cell suspension (1×10^5 cells/ml) was put in a 96-well plate for cell culture (purchased from NUNC, Production No. 167008) at 0.1 ml/well, and then cultured in a 5% CO2 incubator (37° C.) overnight. After the culture, from each well was removed the supernatant, followed by adding 0.05 ml of a 1% FBS-containing RPMI1640 medium. Then, the well was supplied with 0.05 ml of the test substance dissolved in dimethyl sulfoxide (diluted with a 1% FBS-containing RPMI1640 medium), followed by culturing in a 5% CO2 incubator (37° C.) for 1 hr. From each well was removed the supernatant, and each well was washed with 150 μl of PBS, followed by adding 100 μl of a lysis buffer (50 mM Hepes (pH 7.4), 150 mM NaCl, 10% (v/v) glycerol, 1% Triton X-100, 1.5 mM MgCl2, 1 mM EDTA (pH 8.0), 100 mM NaF, 1 mM PMSF, 10 μg/ml Aprotinin, 50 μg/ml Leupeptin, 1 μg/ml Pepstatin A and 1 mM Na3VO4). The plate was shaken at 4° C. for 1 hr to prepare the cell extract.
To a 96-well plate for ELISA (purchased from COSTAR, Production No. 3369) was added 50 μl of 60 mM bicarbonate buffer (pH 9.6) containing 50 μg/ml of an anti-phosphotyrosine antibody (PY20, purchased from Transduction Laboratory, Production No. P-11120). The plate was incubated at 4° C. overnight.
Each well of the plate prepared in 2. was washed three times with 200 μl of PBS, and supplied with 150 μl of 3% BSA/PBS, followed by incubating at room temperature for 2 hrs. Each well was washed three times with 200 μl of PBS, and supplied with 50 μl of the above cell extract, followed by incubating at 4° C. overnight. After the incubation, each well was washed three times with 250 μl of a washing solution (0.1% BSA, 20 mM Tris-HCl (pH 7.6), 137 mM NaCl, and 0.05% Tween-20), and supplied with 70 μl of anti-HGFR antibody (h-Met(C-12), purchased from Santa Cruz, Production No. sc-10) 2,000-fold diluted with a reaction solution (1% BSA, 20 mM Tris-HCl (pH 7.6), 137 mM NaCl and 0.05% Tween-20), followed by incubating at room temperature for 1 hr. The well was washed three times with 250 μl of the washing solution, and supplied with 70 μl of peroxidase-labelled anti-rabbit IgG antibody (purchased from Cell Signaling, Production No. 7074) 2,000-fold diluted with the reaction solution, followed by incubating at room temperature for 1 hr. Each well was washed three times with 250 μl of the washing solution, and supplied with 70 μl of TMB Membrane Peroxidase Substrate (purchased from Funakoshi, Production No. 50-5077-03), followed by incubating at room temperature for 10 min. Each well was supplied with 70 μl of 1 M phosphoric acid, and using the Plate Reader MTP-500 (Corona Electric), the absorbance of the well was instantly determined at a measurement wavelength of 450 nm. While defining the absorbance of a well supplied with the cell extract having no test substance as 100% HGFR autophosphorylation activity, and the absorbance of a well supplied with 50 μl of the lysis buffer as 0% HGFR autophosphorylation activity, the HGFR autophosphorylation activity (%) was calculated for each well.

T1 sequence (P08581 25-1390): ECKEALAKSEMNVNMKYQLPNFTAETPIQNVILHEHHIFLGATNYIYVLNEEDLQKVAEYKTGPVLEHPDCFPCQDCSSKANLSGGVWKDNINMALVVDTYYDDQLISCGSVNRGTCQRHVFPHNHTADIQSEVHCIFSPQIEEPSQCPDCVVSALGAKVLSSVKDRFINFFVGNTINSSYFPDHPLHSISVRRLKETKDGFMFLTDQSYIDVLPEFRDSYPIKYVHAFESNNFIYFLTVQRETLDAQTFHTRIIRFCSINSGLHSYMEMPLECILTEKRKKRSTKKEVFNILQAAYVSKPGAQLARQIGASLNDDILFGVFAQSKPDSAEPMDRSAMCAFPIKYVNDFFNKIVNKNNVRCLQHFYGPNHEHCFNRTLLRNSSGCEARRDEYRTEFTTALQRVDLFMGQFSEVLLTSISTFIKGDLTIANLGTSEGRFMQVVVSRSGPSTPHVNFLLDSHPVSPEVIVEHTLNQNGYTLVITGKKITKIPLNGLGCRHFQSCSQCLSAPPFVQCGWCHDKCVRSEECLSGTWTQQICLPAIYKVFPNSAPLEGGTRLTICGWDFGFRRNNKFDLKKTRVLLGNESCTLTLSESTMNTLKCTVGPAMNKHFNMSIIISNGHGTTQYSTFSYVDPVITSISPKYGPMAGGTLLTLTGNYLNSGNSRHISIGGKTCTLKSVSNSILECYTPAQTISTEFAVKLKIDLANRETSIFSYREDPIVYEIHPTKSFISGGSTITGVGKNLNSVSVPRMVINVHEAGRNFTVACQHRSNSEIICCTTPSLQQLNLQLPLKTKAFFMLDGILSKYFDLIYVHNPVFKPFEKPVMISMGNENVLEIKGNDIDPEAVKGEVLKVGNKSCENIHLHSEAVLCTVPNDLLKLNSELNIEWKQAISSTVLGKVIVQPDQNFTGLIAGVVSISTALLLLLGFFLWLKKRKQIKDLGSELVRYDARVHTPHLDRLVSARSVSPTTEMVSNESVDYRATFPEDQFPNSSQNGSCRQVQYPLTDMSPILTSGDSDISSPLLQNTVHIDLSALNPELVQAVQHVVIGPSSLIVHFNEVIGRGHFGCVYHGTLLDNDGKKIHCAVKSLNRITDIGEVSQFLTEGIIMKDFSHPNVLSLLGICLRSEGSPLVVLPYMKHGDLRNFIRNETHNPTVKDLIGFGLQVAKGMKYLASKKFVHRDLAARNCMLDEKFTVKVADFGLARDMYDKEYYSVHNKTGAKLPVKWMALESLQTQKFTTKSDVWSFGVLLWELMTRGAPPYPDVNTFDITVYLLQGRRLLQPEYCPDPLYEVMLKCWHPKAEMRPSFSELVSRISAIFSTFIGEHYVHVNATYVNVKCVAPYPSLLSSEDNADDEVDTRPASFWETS

Row | Compound | IC50 [1] | IC50 [2]
1 | O=C(Nc1cc(Oc2ccc(NC(=O)C3(C(=O)Nc4ccc(F)cc4)CC3)cc2)ccn1)N1CCC(N2CCC2)CC1 [Example 13, N-{4-[(2-{[(4-Azetidin-1-ylpiperidin-1-yl)carbonyl]amino}pyridin-4-yl)oxy]phenyl}-N′-(4-fluorophenyl)cyclopropane-1,1-dicarboxamide] | 0.076 µM | 0.037 µM
2 | O=C(Nc1cc(Oc2ccc(NC(=O)C3(C(=O)Nc4ccc(F)cc4)CC3)cc2)ccn1)N1CCC(CN2CCC2)CC1 [Example 27, N-(4-{[2-({f [4-(Azetidin-1-ylmethyl)piperidin-1-yl]carbonyl}amino)pyridin-4-yl]oxy}phenyl)-N′-(4-fluorophenyl)cyclopropane-1,1-dicarboxamide] | 0.048 µM | 0.032 µM
3 | O=C(Nc1cc(Oc2ccc(NC(=O)C3(C(=O)Nc4ccc(F)cc4)CC3)c(F)c2)ccn1)N1CCC(N2CCNCC2)CC1 [Example 71, N-(4-Fluorophenyl)-N′-{2-fluoro-4-[(2-{[(4-piperazin-1-ylpiperidin-1-yl)carbonyl]amino}pyridin-4-yl)oxy]phenyl}cyclopropane-1,1-dicarboxamide] | 0.061 µM | 0.011 µM
4 | CN1CCN(C(=O)Nc2cc(Oc3ccc(NC(=O)C4(C(=O)Nc5ccc(F)cc5)CC4)c(F)c3)ccn2)CC1 [Example 64, N-{2-Fluoro-4-[(2-{[(1-methylpiperazin-4-yl)carbonyl]amino}pyridin-4-yl)oxy]phenyl}-N′-(4-fluorophenyl)cyclopropane-1,1-dicarboxamide] | 0.057 µM | 0.02 µM
5 | CN(C)C1CN(C2CCN(C(=O)Nc3cc(Oc4ccc(NC(=O)C5(C(=O)Nc6ccc(F)cc6)CC5)cc4)ccn3)CC2)C1 [Example 38, N-[4-({2-[({4-[3-(Dimethylamino)azetidin-1-yl]piperidin-1-yl}carbonyl)amino]pyridin-4-yl}oxy)phenyl]-N′-(4-fluorophenyl)cyclopropane-1,1-dicarboxamide] | 0.052 µM | 0.018 µM
6 | CN(C)C1CN(C2CCN(C(=O)Nc3cc(Oc4ccc(NC(=O)C5(C(=O)Nc6ccccc6)CC5)c(F)c4)ccn3)CC2)C1 [Example 55] | 0.043 µM | 0.016 µM
7 | CCN(CC)CCCNC(=O)Nc1cc(Oc2ccc(NC(=O)C3(C(=O)Nc4ccc(F)cc4)CC3)cc2C)ccn1 [Example 45, N-[4-({2-[({[3-(Diethylamino)propyl]amino}carbonyl)amino]pyridin-4-yl}oxy)-3-methylphenyl]-N′-(4-fluorophenyl)cyclopropane-1,1-dicarboxamide] | 0.5 µM | 0.44 µM
8 | CN(C)[C@H]1CCN(C(=O)Nc2cc(Oc3ccc(NC(=O)C4(C(=O)Nc5ccc(F)cc5)CC4)cc3)ccn2)C1 [Example 41, N-(4-{[2-({[(3S)-3-(Dimethylamino)pyrrolidin-1-yl]carbonyl}amino)pyridin-4-yl]oxy}phenyl)-N′-(4-fluorophenyl)cyclopropane-1,1-dicarboxamide] | 0.042 µM | 0.016 µM
9 | CN1CCC(N(C)C(=O)Nc2cc(Oc3ccc(NC(=O)C4(C(=O)Nc5ccc(F)cc5)CC4)cc3F)ncn2)CC1 [Example 33, N-(3-Fluoro-4-{[6-({[methyl(1-methylpiperidin-4-yl)amino]carbonyl}amino)pyrimidin-4-yl]oxy}phenyl)-N′-(4-fluorophenyl)cyclopropane-1,1-dicarboxamide] | 0.055 µM | 0.025 µM
10 | O=C(Nc1cc(Oc2ccc(NC(=O)C3(C(=O)Nc4ccc(F)cc4)CC3)cc2)ccn1)N1CCC(CN2CCCC2)CC1 [Example 29, N-(4-Fluorophenyl)-N′-(4-{[2-({[4-(pyrrolidin-1-ylmethyl)piperidin-1-yl]-carbonyl}amino)pyridin-4-yl]oxy}phenyl)cyclopropane-1,1-dicarboxamide] | 0.05 µM | 0.03 µM

Now those with a lower IC50 [1], led by results:

Row | IC50 [1] | IC50 [2] | Compound
11 | 0.04 µM | 0.041 µM | CN(C)C1CCN(C(=O)Nc2cc(Oc3cc(F)c(NC(=O)C4(C(=O)Nc5ccc(F)cc5)CC4)cc3F)ncn2)CC1 [Example 102, N-(4-{[4-({[4-(Dimethylamino)piperidin-1-yl]carbonyl}amino)pyrimidin-6-yl]oxy}-2,5-difluorophenyl)-N′-(4-fluorophenyl)cyclopropane-1,1-dicarboxamide]
12 | 0.038 µM | 0.016 µM | CN(C)CCN1CCC(N(C)C(=O)Nc2cc(Oc3ccc(NC(=O)C4(C(=O)Nc5ccc(F)cc5)CC4)cc3)ccn2)CC1 [Example 39, N-(4-{[2-({[{1-[2-(Dimethylamino)ethyl]piperidin-4-yl}(methyl)amino]carbonyl}amino)pyridin-4-yl]oxy}phenyl)-N′-(4-fluorophenyl)cyclopropane-1,1-dicarboxamide]
13 | 0.034 µM | 0.013 µM | O=C(Nc1cc(Oc2ccc(NC(=O)C3(C(=O)Nc4ccc(F)cc4)CC3)cc2F)ccn1)N1CCC(N2CCC2)CC1 [Example 11, N-{4-[(2-{[(4-Azetidin-1-ylpiperidin-1-yl)carbonyl]amino}pyridin-4-yl)oxy]-3-fluorophenyl}-N′-(4-fluorophenyl)cyclopropane-1,1-dicarboxamide]
14 | 0.031 µM | 0.03 µM | CN1CCC(N2CCN(C(=O)Nc3cc(Oc4ccc(NC(=O)C5(C(=O)Nc6ccc(F)cc6)CC5)cc4)ccn3)CC2)CC1 [Example 31, N-(4-Fluorophenyl)-N′-(4-{[2-({[4-(1-methylpiperidin-4-yl)piperazin-1-yl]carbonyl}amino)pyridin-4-yl]oxy}phenyl)cyclopropane-1,1-dicarboxamide]
15 | 0.025 µM | 0.011 µM | O=C(Nc1cc(Oc2ccc(NC(=O)C3(C(=O)Nc4ccc(F)cc4)CC3)c(F)c2)ccn1)N1CCCC1 [Example 62, N-(4-Fluorophenyl)-N′-[2-fluoro-4-({2-[(pyrrolidin-1-ylcarbonyl)amino]pyridin-4-yl}oxy)phenyl]cyclopropane-1,1-dicarboxamide]
16 | 0.022 µM | 0.01 µM | O=C(Nc1cc(Oc2ccc(NC(=O)C3(C(=O)Nc4ccc(F)cc4)CC3)c(F)c2)ccn1)N1CC(O)C1 [Example 72, N-{2-Fluoro-4-[(2-{[(3-hydroxyazetidin-1-yl)carbonyl]amino}pyridin-4-yl)oxy]phenyl}-N′-(4-fluorophenyl)cyclopropane-1,1-dicarboxamide]
17 | 0.021 µM | 0.014 µM | O=C(Nc1cc(Oc2ccc(NC(=O)C3(C(=O)Nc4ccc(F)cc4)CC3)c(F)c2)ccn1)N1CCC(N2CCCC2)CC1 [Example 4, N-(4-Fluorophenyl)-N′-{2-fluoro-4-[(2-{[(4-pyrrolidin-1-ylpiperidin-1-yl)carbonyl]amino}pyridin-4-yl)oxy]phenyl}cyclopropane-1,1-dicarboxamide]
18 | 0.015 µM | 0.022 µM | CN1CCN(C2CCN(C(=O)Nc3cc(Oc4ccc(NC(=O)C5(C(=O)Nc6ccc(F)cc6)CC5)cc4F)ccn3)CC2)CC1 [Example 20, N-(3-Fluoro-4-{[2-({[-4-(4-methylpiperazin-1-yl)piperidin-1-yl]-carbonyl}amino)pyridin-4-yl]oxy}phenyl)-N′-(4-fluorophenyl)cyclopropane-1,1-dicarboxamide]
19 | 0.0058 µM | 0.012 µM | CN(C)C1CCN(C(=O)Nc2cc(Oc3cc(F)c(NC(=O)C4(C(=O)Nc5ccc(F)cc5)CC4)cc3F)ccn2)CC1 [Example 103, N-(4-{[2-({[4-(Dimethylamino)piperidin-1-yl]carbonyl}amino)pyridin-4-yl]oxy}-2,5-difluorophenyl)-N′-(4-fluorophenyl)cyclopropane-1,1-dicarboxamide]
